The record followed here is patent US20250066303A1, “ARYL TETRAHYDROPYRIDINE DERIVATIVE OR SALT THEREOF, PEST CONTROL AGENT CONTAINING SAME, AND METHOD FOR USE THEREOF” (NIHON NOHYAKU CO., LTD., priority 2021, published 2025).

This experiment relates to Dirofilaria immitis. The experiment can be described thus: Influence evaluation test on the growth of Dirofilaria immitis. The conditions noted are these: 168 h, read-out: development inhibition rate from the L3 stage larva to the L4-stage larva.

A value given as a limit tells only on which side of the number the result lay.

One may read the inhibition as the relative decrease from the control value, in per cent. As for `CN1CC(C)(c2ccc(C(F)(F)F)cc2)C(O)=C(C(=S)Nc2ccc(F)cc2)C1=O` (stereo not shown) [compound No. 3-14, N-(4-fluorophenyl)-4-hydroxy-1,5-dimethyl-2-oxo-5-(4-(trifluoromethyl)phenyl)-1,2,5,6-tetrahydropyridine-3-carbothioamide], the inhibition at 10 µM is ≥ 50%.
